Data published in ChEMBL document CHEMBL6103552, “Identification of peptide-based hepatitis B virus capsid inhibitors based on the viral core protein” (Bioorg Med Chem Lett, 2025).
Calls of active or inactive are those of the source. The rule behind the calls is not given here. Residues, ends and D or L forms follow the SMILES beside them.

Target: Core antigen (Hepatitis B virus) (UniProt Q03732)
Experiment: Inhibition of Hepatitis B virus capsid formation at 100 uM treated during cell-free wild type HBV Cp synthesis using wheat germ lysates and HBV Cp RNA by Native capsid assay based western blot analysis
Format: subcellular

Sequence of Core antigen (Hepatitis B virus) (Q03732 as listed by the source): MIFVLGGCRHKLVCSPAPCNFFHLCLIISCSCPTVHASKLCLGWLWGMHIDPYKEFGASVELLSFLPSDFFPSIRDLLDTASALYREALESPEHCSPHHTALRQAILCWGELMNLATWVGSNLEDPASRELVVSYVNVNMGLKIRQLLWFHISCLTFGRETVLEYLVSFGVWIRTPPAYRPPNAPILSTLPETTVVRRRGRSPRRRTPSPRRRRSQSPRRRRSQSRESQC

| SMILES | inhibition |
| --- | --- |
| CC(C)C[C@H](NC(=O)[C@H](Cc1ccc(O)cc1)NC(=O)[C@H](CCC(=O)O)NC(=O)[C@H](CC(C)C)NC(=O)[C@@H](NC(=O)[C@@H](NC(=O)[C@H](CCC(=O)O)NC(=O)[C@H](CCCNC(=N)N)NC(=O)CN)[C@@H](C)O)C(C)C)C(=O)N[C@H](C(=O)N[C@@H](CO)C(=O)N[C@@H](Cc1ccccc1)C(=O)NCC(=O)N[C@H](C(=O)N[C@@H](Cc1c[nH]c2ccccc12)C(N)=O)C(C)C)C(C)C (H-GRETVLEYLVSFGVW-NH2) | inactive |
| CC[C@H](C)[C@H](NC(=O)[C@H](C)NC(=O)[C@H](CCC(N)=O)NC(=O)[C@@H]1CCCN1C(=O)[C@H](CC(C)C)NC(=O)[C@H](C)NC(=O)[C@@H](NC(=O)[C@H](Cc1c[nH]cn1)NC(=O)[C@@H](N)Cc1c[nH]cn1)[C@@H](C)O)C(=O)N[C@@H](CC(C)C)C(=O)N[C@@H](CS)C(=O)N[C@@H](Cc1c[nH]c2ccccc12)C(=O)NCC(=O)N[C@@H](CCC(=O)O)C(=O)N[C@@H](CC(C)C)C(N)=O (H-HHTALPQAILCWGEL-NH2) | inactive |
| CC[C@H](C)[C@H](N)C(=O)N[C@@H](CCCNC(=N)N)C(=O)N[C@H](C(=O)N1CCC[C@H]1C(=O)N1CCC[C@H]1C(=O)N[C@@H](C)C(=O)N[C@@H](Cc1ccc(O)cc1)C(=O)N[C@@H](CCCNC(=N)N)C(=O)N1CCC[C@H]1C(=O)N1CCC[C@H]1C(=O)N[C@@H](CC(N)=O)C(=O)N[C@@H](C)C(=O)N1CCC[C@H]1C(=O)N[C@H](C(=O)N[C@@H](CC(C)C)C(N)=O)[C@@H](C)CC)[C@@H](C)O (H-IRTPPAYRPPNAPIL-NH2) | inactive |
| CC[C@H](C)[C@H](NC(=O)[C@H](Cc1c[nH]cn1)NC(=O)[C@H](Cc1ccccc1)NC(=O)[C@H](Cc1c[nH]c2ccccc12)NC(=O)[C@H](CC(C)C)NC(=O)[C@H](CC(C)C)NC(=O)[C@H](CCC(N)=O)NC(=O)[C@H](CCCNC(=N)N)NC(=O)[C@H](Cc1ccccc1)NC(=O)[C@@H](N)CCCCN)C(=O)N[C@@H](CO)C(=O)N[C@@H](CS)C(=O)N[C@@H](CC(C)C)C(=O)N[C@H](C(=O)N[C@@H](Cc1ccccc1)C(N)=O)[C@@H](C)O (H-KFRQLLWFHISCLTF-NH2) | inactive |
| CC(C)C[C@H](NC(=O)[C@H](C)NC(=O)[C@H](CO)NC(=O)[C@H](C)NC(=O)[C@@H](NC(=O)[C@H](CC(=O)O)NC(=O)[C@@H](N)CC(C)C)[C@@H](C)O)C(=O)N[C@@H](Cc1ccc(O)cc1)C(=O)N[C@@H](CCCNC(=N)N)C(=O)N[C@@H](CCC(=O)O)C(=O)N[C@@H](C)C(=O)N[C@@H](CC(C)C)C(=O)N[C@@H](CCC(=O)O)C(=O)N[C@@H](CO)C(=O)N1CCC[C@H]1C(N)=O (H-LDTASALYREALESP-NH2) | inactive |
| CC[C@H](C)[C@H](NC(=O)[C@H](Cc1c[nH]c2ccccc12)NC(=O)[C@@H](NC(=O)CNC(=O)[C@H](Cc1ccccc1)NC(=O)[C@H](CO)NC(=O)[C@@H](NC(=O)[C@H](CC(C)C)NC(=O)[C@H](Cc1ccc(O)cc1)NC(=O)[C@H](CCC(=O)O)NC(=O)[C@@H](N)CC(C)C)C(C)C)C(C)C)C(=O)N[C@@H](CCCNC(=N)N)C(=O)N[C@H](C(=O)N1CCC[C@H]1C(=O)N1CCC[C@H]1C(N)=O)[C@@H](C)O (H-LEYLVSFGVWIRTPP-NH2) | inactive |
| CC[C@H](C)[C@H](NC(=O)[C@H](Cc1c[nH]cn1)NC(=O)[C@H](Cc1ccccc1)NC(=O)[C@H](Cc1c[nH]c2ccccc12)NC(=O)[C@@H](N)CC(C)C)C(=O)N[C@@H](CO)C(=O)N[C@@H](CS)C(=O)N[C@@H](CC(C)C)C(=O)N[C@H](C(=O)N[C@@H](Cc1ccccc1)C(=O)NCC(=O)N[C@@H](CCCNC(=N)N)C(=O)N[C@@H](CCC(=O)O)C(=O)N[C@H](C(=O)N[C@H](C(N)=O)C(C)C)[C@@H](C)O)[C@@H](C)O (H-LWFHISCLTFGRETV-NH2) | inactive |
| N=C(N)NCCC[C@H](NC(=O)[C@@H]1CCCN1)C(=O)N[C@@H](CCCNC(=N)N)C(=O)N[C@@H](CCCNC(=N)N)C(=O)N[C@@H](CCCNC(=N)N)C(=O)N[C@@H](CO)C(=O)N[C@@H](CCC(N)=O)C(=O)N[C@@H](CO)C(=O)N[C@@H](CCCNC(=N)N)C(=O)N[C@@H](CCC(=O)O)C(=O)N[C@@H](CO)C(=O)N[C@@H](CCC(N)=O)C(=O)N[C@@H](CS)C(N)=O (H-PRRRRSQSRESQC-NH2) | inactive |
| C[C@@H](O)[C@H](NC(=O)[C@H](CCCNC(=N)N)NC(=O)[C@H](CCCNC(=N)N)NC(=O)[C@H](CCCNC(=N)N)NC(=O)[C@@H]1CCCN1)C(=O)N1CCC[C@H]1C(=O)N[C@@H](CO)C(=O)N1CCC[C@H]1C(=O)N[C@@H](CCCNC(=N)N)C(=O)N[C@@H](CCCNC(=N)N)C(=O)N[C@@H](CCCNC(=N)N)C(=O)N[C@@H](CCCNC(=N)N)C(=O)N[C@@H](CO)C(=O)N[C@@H](CCC(N)=O)C(=O)N[C@@H](CO)C(N)=O (H-PRRRTPSPRRRRSQS-NH2) | inactive |
| N=C(N)NCCC[C@H](NC(=O)[C@H](CCCNC(=N)N)NC(=O)[C@H](CCCNC(=N)N)NC(=O)[C@H](CCCNC(=N)N)NC(=O)[C@@H]1CCCN1C(=O)[C@H](CO)NC(=O)[C@H](CCC(N)=O)NC(=O)[C@H](CO)NC(=O)[C@H](CCCNC(=N)N)NC(=O)[C@H](CCCNC(=N)N)NC(=O)[C@H](CCCNC(=N)N)NC(=O)[C@H](CCCNC(=N)N)NC(=O)[C@@H]1CCCN1C(=O)[C@H](CO)NC(=O)[C@@H]1CCCN1)C(N)=O (H-PSPRRRRSQSPRRRR-NH2) | inactive |
| N=C(N)NCCC[C@H](NC(=O)[C@H](CO)NC(=O)[C@H](CCC(N)=O)NC(=O)[C@H](CO)NC(=O)[C@H](CCCNC(=N)N)NC(=O)[C@H](CCCNC(=N)N)NC(=O)[C@H](CCCNC(=N)N)NC(=O)[C@H](CCCNC(=N)N)NC(=O)[C@@H]1CCCN1C(=O)[C@H](CO)NC(=O)[C@@H](N)CCC(N)=O)C(=O)N[C@@H](CCC(=O)O)C(=O)N[C@@H](CO)C(=O)N[C@@H](CCC(N)=O)C(=O)N[C@@H](CS)C(N)=O (H-QSPRRRRSQSRESQC-NH2) | inactive |
| C[C@@H](O)[C@H](NC(=O)[C@H](CCCNC(=N)N)NC(=O)[C@H](CCCNC(=N)N)NC(=O)[C@H](CCCNC(=N)N)NC(=O)[C@@H]1CCCN1C(=O)[C@H](CO)NC(=O)[C@H](CCCNC(=N)N)NC(=O)CNC(=O)[C@H](CCCNC(=N)N)NC(=O)[C@@H](N)CCCNC(=N)N)C(=O)N1CCC[C@H]1C(=O)N[C@@H](CO)C(=O)N1CCC[C@H]1C(=O)N[C@@H](CCCNC(=N)N)C(=O)N[C@@H](CCCNC(=N)N)C(N)=O (H-RRGRSPRRRTPSPRR-NH2) | inactive |
| N=C(N)NCCC[C@H](NC(=O)[C@H](CO)NC(=O)[C@H](CCC(N)=O)NC(=O)[C@H](CO)NC(=O)[C@H](CCCNC(=N)N)NC(=O)[C@H](CCCNC(=N)N)NC(=O)[C@H](CCCNC(=N)N)NC(=O)[C@H](CCCNC(=N)N)NC(=O)[C@@H]1CCCN1C(=O)[C@H](CO)NC(=O)[C@H](CCC(N)=O)NC(=O)[C@H](CO)NC(=O)[C@H](CCCNC(=N)N)NC(=O)[C@@H](N)CCCNC(=N)N)C(=O)N[C@@H](CCC(=O)O)C(N)=O (H-RRSQSPRRRRSQSRE-NH2) | inactive |
| CC(C)C[C@H](NC(=O)[C@H](Cc1ccc(O)cc1)NC(=O)[C@H](CCC(=O)O)NC(=O)[C@H](CC(C)C)NC(=O)[C@@H](NC(=O)[C@@H](NC(=O)[C@H](CCC(=O)O)NC(=O)[C@H](CCCNC(=N)N)NC(=O)CNC(=O)[C@H](Cc1ccccc1)NC(=O)[C@@H](NC(=O)[C@H](CC(C)C)NC(=O)[C@H](CS)NC(=O)[C@@H](N)CO)[C@@H](C)O)[C@@H](C)O)C(C)C)C(=O)N[C@H](C(N)=O)C(C)C (H-SCLTFGRETVLEYLV-NH2) | inactive |
